Where two headings read alike, the source gives them in different places. One block for each molecule: values may come before it.
Tests used:
[1] = Photostability: iodide formed after visible light irradiation; assay type: physicochemical; conditions: for Iodide formed: 50 mM agent, 10 mM TRIS, pH 7.4, VIS 72 h
Procedure: Aqueous solutions comprising iodinated contrast agents were prepared and evaluated in a photolysis chamber as described in the ICH guidance document, Q1B Photostability Testing of New Drug Substances and Products, available from the US Food and Drug Administration, incorporated herein by reference. The solutions were placed in 1 cm×1 cm (3 mL) quartz cuvettes having 2 clear sides and 2 sides etched. Lids were placed on the cuvettes and sealed with a wrap of Parafilm® around the joint. The cuvettes were placed in a photolysis chamber, upright on a flat surface beneath and centered between two horizontal 24 inch fluorescent lamps, (GE, black light F20T12, 20 watt for ultraviolet, or Philips F20T12/CW, 20 watt for visible) placed 6 cm apart. The cuvettes were positioned such that their two clear sides were facing the two lamps.
Cuvettes were spaced ˜2 cm from each other, and no closer than 15 cm from the ends of the lamps. This positioning allowed reproducible light exposure to all cuvettes.
(§1) The lamps were switched on and the solutions irradiated for 18 to 24 hours for the ultraviolet (UV) lamps or 72 to 90 hours for the visible (VIS) light lamps. At the end of the selected irradiation time, the cuvettes were removed from the photolysis chamber and mixed by inversion 2-times. The caps were then removed and 40 microliter aliquots taken and diluted with 1 mL of an aqueous solution containing ˜0.9 mg/mL sodium thiosulfate. The thiosulfate solution converted any I2, IO3^−, and I3^− present in the solution tor such that total iodine species could be determined in one assay.
(§2) The diluted solutions were assayed by high pressure liquid chromatography (HPLC) using a 4.6×250 mm, C-18, 5 micron particle size, reversed phase column with detection at 280 nm for the contrast agent and 230 nm for the thiosulfate and the iodide ion (r). A mobile phase of 30:70 methanol:aqueous buffer (50 mM KH2PO4+7 mL/L 40% tetrabutyl ammonium hydroxide) at 0.75 mL/min was used for elution. Injection volume was 20 microliters. External standards were prepared containing each contrast agent, potassium iodide, and sodium thiosulfate solution and analyzed along with the irradiated samples. The results were reported as weight percentage iodide formed (mg iodide/mg contrast agent times 100).
The absorbance readings at 400 nm due to light exposure were plotted against time of exposure and the resulting correlation used to determine the UV and VIS light exposure. A change in absorbance reading of 0.45 was assumed equivalent to 200 watt hours/square meter for the UV light and a change of 0.51 was assumed equivalent to 1.2 million lux hours for the VIS light. The UV lamps provided 6.62 watts/square meter and the VIS lamps provided 7180 lux.
Aqueous solutions were prepared containing 473 mM iohexol (180 mg 1/mL), 10 mM tromethamine HCl buffer (TRIS), with and without various SCDs. The pH of the solutions was adjusted to 7.4 with 0.1N hydrochloric acid. Aliquots of the solutions were irradiated with ultraviolet (UV) light for 18 hours (119 watt hours/m^2) and other aliquots irradiated with visible (VIS) light for 90 hours (0.65 million lux hours). The solutions were then processed, analyzed and reported as in Example 2, with the exception that the iohexol peak was measured at 300 nm for both samples and standards. Results of the study are presented in the table below along with the SCD used. The SCDs included derivatives prepared from alpha, beta, and gamma CD to evaluate the effect of CD cavity size. Various substituents, including one derivative containing more than one type of substituent, and degrees of substitution (DS) were also evaluated.
Aqueous solutions were prepared containing 50 mM iodinated contrast agent, 10 mM tromethamine HCl buffer (TRIS), with and without sulfobutylether beta-cyclodextrin with an average degree of substitution-7 (SBE7-β-CD), or 2-hydroxypropyl beta-cyclodextrin with an average degree of substitution of ˜6.3 (HP6.3-β-CD) or ˜4.3 (HP4.3-β-CD). […]

[2] = assay type: physicochemical
Procedure: as §1, §2
Aqueous solutions were prepared containing 50 mM iodinated contrast agent, 10 mM tromethamine HCl buffer (TRIS), with and without sulfobutylether beta-cyclodextrin with an average degree of substitution-7 (SBE7-β-CD), or 2-hydroxypropyl beta-cyclodextrin with an average degree of substitution of ˜6.3 (HP6.3-β-CD) or ˜4.3 (HP4.3-β-CD). The iohexol solution was prepared by dissolving solid iohexol powder while the other solutions were prepared by diluting commercial formulated products and adding sufficient TRIS buffer to reach 10 mM. The pH of the solutions was adjusted to 7.4 with 0.1N hydrochloric acid.
Aliquots of the solutions were irradiated with visible light for 72 hours (0.52 million lux hours). Other aliquots were autoclaved for 20 minutes at 121° C., cooled to room temperature and then irradiated with ultraviolet light for 18 hours (119 watt hours/m2). The solutions were then processed, analyzed and reported as in Example 2, except that the chromatographic peaks of the contrast agents were evaluated at 300 nm for both samples and standards. […]
Aqueous formulations were prepared containing iodinated contrast agents at concentrations used commercially in medical procedures. Sulfobutylether-cyclodextrin, sodium salt, average degree of substitution ˜7 (SBE7CD) was added at varying agent:CD mole ratios. The formulations were placed in glass vials, sealed with rubber stoppers and aluminum crimps, and autoclaved at 121° C. for 20 minutes. Aliquots of the autoclaved solutions were exposed to UV light for 24 hours (159 watt hours/m^2 or VIS light for 72 hours (0.52 million lux hours) as in Example 2. The solutions were then processed, analyzed and reported as in Example 2, with the following two exceptions; 1) the chromatographic peaks of the contrast agents were evaluated at 300 nm for both samples and standards, and 2) only 20 microliter sample aliquots were taken and diluted for HPLC analysis due to the higher concentrations used in this study. Results of the study are presented in the table below along with the solution compositions.

Iodide formed ([1]; agent:SBE7-β-CD 1:0.1): 0.269 wt % | Iodide formed ([1]; no SCD (1:0)): 0.311 wt % | Iodide Formed, Autoclaved ([2]; Iopromide 150 mg I/mL, pH 7.4, agent:SBE7CD 1:0.05): 0.00289 wt % | Iodide Formed, Autoclaved ([2]; Iopromide 150 mg I/mL, pH 7.4, no SCD (1:0)): 0.00383 wt % | Iodide Formed, Autoclaved ([2]; Iopromide 240 mg I/mL, pH 7.4, agent:SBE7CD 1:0.05): 0.00217 wt % | Iodide Formed, Autoclaved ([2]; Iopromide 240 mg I/mL, pH 7.4, no SCD (1:0)): 0.00204 wt % | Iodide Formed, Autoclaved ([2]; Iopromide 300 mg I/mL, pH 7.4, agent:SBE7CD 1:0.05): 0.00118 wt % | Iodide Formed, Autoclaved ([2]; Iopromide 300 mg I/mL, pH 7.4, no SCD (1:0)): 0.00145 wt % | Iodide Formed, Autoclaved ([2]; Iopromide 370 mg I/mL, pH 7.4, agent:SBE7CD 1:0.05): 0.00072 wt % | Iodide Formed, Autoclaved ([2]; Iopromide 370 mg I/mL, pH 7.4, no SCD (1:0)): 0.00111 wt %
Structure (SMILES): COCC(=O)Nc1c(I)c(C(=O)NCC(O)CO)c(I)c(C(=O)N(C)CC(O)CO)c1I (stereo not drawn) [Iopromide, iopromide]

Structure (SMILES): CC(=O)N(CC(O)CN(C(C)=O)c1c(I)c(C(=O)NCC(O)CO)c(I)c(C(=O)NCC(O)CO)c1I)c1c(I)c(C(=O)NCC(O)CO)c(I)c(C(=O)NCC(O)CO)c1I (stereo not drawn) [Iodixanol, iodixanol]
Iodide formed ([1]; agent:SBE7-β-CD 1:0.1): 0.142 wt % | Iodide formed ([1]; no SCD (1:0)): 0.153 wt % | Iodide Formed, Autoclaved ([2]; Iodixanol 270 mg I/mL, pH 7.4, agent:SBE7CD 1:0.05): 0.0161 wt % | Iodide Formed, Autoclaved ([2]; Iodixanol 270 mg I/mL, pH 7.4, no SCD (1:0)): 0.0167 wt % | Iodide Formed, Autoclaved ([2]; Iodixanol 320 mg I/mL, pH 7.4, agent:SBE7CD 1:0.05): 0.0135 wt % | Iodide Formed, Autoclaved ([2]; Iodixanol 320 mg I/mL, pH 7.4, no SCD (1:0)): 0.0132 wt %

Iodide formed ([1]; agent:SBE7-β-CD 1:0.1): 0.301 wt % | Iodide formed ([1]; no SCD (1:0)): 0.304 wt % | percent change in iodide degradants formed in the presence of the SCD ([1]; 72 h, 50 mM, pH 7.4): (−1%) | percent change in iodide degradants formed in the presence of the SCD ([2]; 20 min, 50 mM, pH 7.4): (−30.8%) | Iodide Formed, Autoclaved ([2]; Ioversol 160 mg I/mL, pH 7.1, agent:SBE7CD 1:0.05): 0.0241 wt % | Iodide Formed, Autoclaved ([2]; Ioversol 160 mg I/mL, pH 7.1, no SCD (1:0)): 0.0244 wt % | Iodide Formed, Autoclaved ([2]; Ioversol 240 mg I/mL, pH 7.1, agent:SBE7CD 1:0.05): 0.0162 wt % | Iodide Formed, Autoclaved ([2]; Ioversol 240 mg I/mL, pH 7.1, no SCD (1:0)): 0.0160 wt % | Iodide Formed, Autoclaved ([2]; Ioversol 300 mg I/mL, pH 7.1, agent:SBE7CD 1:0.05): 0.0129 wt % | Iodide Formed, Autoclaved ([2]; Ioversol 300 mg I/mL, pH 7.1, no SCD (1:0)): 0.0135 wt % | Iodide Formed, Autoclaved ([2]; Ioversol 320 mg I/mL, pH 7.1, agent:SBE7CD 1:0.05): 0.0127 wt % | Iodide Formed, Autoclaved ([2]; Ioversol 320 mg I/mL, pH 7.1, no SCD (1:0)): 0.0130 wt % | Iodide Formed, Autoclaved ([2]; Ioversol 350 mg I/mL, pH 7.1, agent:SBE7CD 1:0.05): 0.0120 wt % | Iodide Formed, Autoclaved ([2]; Ioversol 350 mg I/mL, pH 7.1, no SCD (1:0)): 0.0124 wt %
Structure (SMILES): O=C(NCC(O)CO)c1c(I)c(C(=O)NCC(O)CO)c(I)c(N(CCO)C(=O)CO)c1I (stereo not drawn) [Ioversol, ioversol]

From patent US20220096664A1, “STABILIZED FORMULATIONS CONTAINING IODINATED CONTRAST AGENTS AND CYCLODEXTRINS” (Verrow Pharmaceuticals, Inc., priority 2012, published 2022)
